Reference: paper PMC5218480 (PLoS ONE, 2017)

Test system: MV-4-11 cells
Assay: Gene expression microarray analysis (Affymetrix PrimeView) and GSEA
Assay type: cell-based, human
Parameters: RFU PODN (11730768_x_at) / Fold change /veh PODN (11730768_x_at) / RFU LINC00158 (11744669_a_at) / Fold change /veh LINC00158 (11744669_a_at) / RFU DUSP10 (11751237_a_at) / Fold change /veh DUSP10 (11751237_a_at) / RFU ID3 (11757404_x_at) / Fold change /veh ID3 (11757404_x_at) / RFU PLEKHG5 (11737974_s_at) / Fold change /veh PLEKHG5 (11737974_s_at) / RFU LRRC4B (11730491_at) / Fold change /veh LRRC4B (11730491_at) / RFU GIMAP4 (11747438_a_at) / Fold change /veh GIMAP4 (11747438_a_at) / RFU KRT8 (11758183_x_at) / Fold change /veh KRT8 (11758183_x_at) / RFU CNN1 (11734310_a_at) / Fold change /veh CNN1 (11734310_a_at) / RFU VPS37D (11726825_at) / Fold change /veh VPS37D (11726825_at) / RFU C10orf10 (11716522_x_at) / Fold change /veh C10orf10 (11716522_x_at) / RFU KIR2DL2 /// KIR2DL4 /// KIR2DL5A /// KIR2DL5B /// KIR2DS1 /// KIR2DS2 /// KIR2DS3 /// KIR2DS4 /// KIR3DL3 /// KIR3DL3 /// KIR3DS1 (11738374_at) / Fold change /veh KIR2DL2 /// KIR2DL4 /// KIR2DL5A /// KIR2DL5B /// KIR2DS1 /// KIR2DS2 /// KIR2DS3 /// KIR2DS4 /// KIR3DL3 /// KIR3DL3 /// KIR3DS1 (11738374_at) / RFU C1QL1 (11718748_at) / Fold change /veh C1QL1 (11718748_at) / RFU TMPRSS4 (11747572_a_at) / Fold change /veh TMPRSS4 (11747572_a_at) / RFU HAMP (11756126_x_at) / Fold change /veh HAMP (11756126_x_at) / RFU RNFT2 (11725882_a_at) / Fold change /veh RNFT2 (11725882_a_at) / RFU NR4A2 (11747474_a_at) / Fold change /veh NR4A2 (11747474_a_at) / RFU ABCC12 (11746883_a_at) / Fold change /veh ABCC12 (11746883_a_at) / RFU TMEM136 (11760407_x_at) / Fold change /veh TMEM136 (11760407_x_at) / RFU CLDN22 /// WWC2 (11732394_at) / Fold change /veh CLDN22 /// WWC2 (11732394_at) / RFU HLA-DPB1 (11760878_x_at) / Fold change /veh HLA-DPB1 (11760878_x_at) / RFU SPINT1 (11716480_a_at) / Fold change /veh SPINT1 (11716480_a_at) / RFU GAP43 (11754022_s_at) / Fold change /veh GAP43 (11754022_s_at) / RFU A4GNT (11735810_at) / Fold change /veh A4GNT (11735810_at) / RFU PRB3 (11715151_x_at) / Fold change /veh PRB3 (11715151_x_at) / RFU TUBB4B (11761932_at) / Fold change /veh TUBB4B (11761932_at) / RFU CAPN14 (11732068_a_at) / Fold change /veh CAPN14 (11732068_a_at) / RFU TMCC2 (11721928_a_at) / Fold change /veh TMCC2 (11721928_a_at) / RFU IRGQ (11745062_a_at) / Fold change /veh IRGQ (11745062_a_at) / RFU FAM174B (11720279_a_at) / Fold change /veh FAM174B (11720279_a_at) / RFU TMPRSS4 (11748680_a_at) / Fold change /veh TMPRSS4 (11748680_a_at) / RFU FAM212B (11763350_a_at) / Fold change /veh FAM212B (11763350_a_at) / RFU PLEKHG5 (11743358_a_at) / Fold change /veh PLEKHG5 (11743358_a_at) / RFU ZSCAN30 (11745921_a_at) / Fold change /veh ZSCAN30 (11745921_a_at) / RFU CMKLR1 (11741424_a_at) / Fold change /veh CMKLR1 (11741424_a_at) / RFU LOC101060620 /// MAPK8IP1 (11723275_at) / Fold change /veh LOC101060620 /// MAPK8IP1 (11723275_at) / RFU SPTSSB (11747773_x_at) / Fold change /veh SPTSSB (11747773_x_at) / RFU PRSS12 (11739890_at) / Fold change /veh PRSS12 (11739890_at) / RFU BIN1 (11741810_x_at) / Fold change /veh BIN1 (11741810_x_at) / RFU WNT11 (11732464_a_at) / Fold change /veh WNT11 (11732464_a_at) / RFU C10orf10 (11716521_a_at) / Fold change /veh C10orf10 (11716521_a_at) / RFU C5orf56 (11738089_at) / Fold change /veh C5orf56 (11738089_at) / RFU CYB561 (11721691_x_at) / Fold change /veh CYB561 (11721691_x_at) / RFU ANKRD19P (11752326_a_at) / Fold change /veh ANKRD19P (11752326_a_at) / RFU OR2T12 /// OR2T33 /// OR2T8 (11738714_s_at) / Fold change /veh OR2T12 /// OR2T33 /// OR2T8 (11738714_s_at) / RFU VCAN (11748164_a_at) / Fold change /veh VCAN (11748164_a_at) / RFU JSRP1 (11732532_at) / Fold change /veh JSRP1 (11732532_at) / RFU KRTAP10-11 (11738290_x_at) / Fold change /veh KRTAP10-11 (11738290_x_at) / RFU MYO3A (11730013_a_at) / Fold change /veh MYO3A (11730013_a_at) / RFU EBF3 (11725865_a_at) / Fold change /veh EBF3 (11725865_a_at) / RFU CAMK2N1 (11719241_x_at) / Fold change /veh CAMK2N1 (11719241_x_at) / RFU C5orf56 (11738088_a_at) / Fold change /veh C5orf56 (11738088_a_at) / RFU OLFML3 (11715873_a_at) / Fold change /veh OLFML3 (11715873_a_at) / RFU LOC100653217 /// NTM (11731650_a_at) / Fold change /veh LOC100653217 /// NTM (11731650_a_at) / RFU MAPK11 (11762145_a_at) / Fold change /veh MAPK11 (11762145_a_at) / RFU FIZ1 (11724087_x_at) / Fold change /veh FIZ1 (11724087_x_at) / RFU OASL (11726364_x_at) / Fold change /veh OASL (11726364_x_at) / RFU SOX15 (11748057_x_at) / Fold change /veh SOX15 (11748057_x_at) / RFU CD79A (11719716_a_at) / Fold change /veh CD79A (11719716_a_at) / RFU HIST1H1D (11736915_at) / Fold change /veh HIST1H1D (11736915_at) / RFU CASKIN2 (11723855_a_at) / Fold change /veh CASKIN2 (11723855_a_at) / RFU LOC730098 (11760151_x_at) / Fold change /veh LOC730098 (11760151_x_at) / RFU OR4N2 (11742367_at) / Fold change /veh OR4N2 (11742367_at) / RFU PRRT2 (11749266_a_at) / Fold change /veh PRRT2 (11749266_a_at) / RFU SNX32 (11753110_a_at) / Fold change /veh SNX32 (11753110_a_at) / RFU CDHR5 (11726645_a_at) / Fold change /veh CDHR5 (11726645_a_at) / RFU RCAN1 (11760418_a_at) / Fold change /veh RCAN1 (11760418_a_at) / RFU FAM167A (11723789_a_at) / Fold change /veh FAM167A (11723789_a_at) / RFU FAM26E (11764081_at) / Fold change /veh FAM26E (11764081_at) / RFU ISYNA1 (11749810_s_at) / Fold change /veh ISYNA1 (11749810_s_at) / RFU ACY1 (11761880_at) / Fold change /veh ACY1 (11761880_at) / RFU 11764098_at / Fold change /veh 11764098_at / RFU SAMD14 (11745864_x_at) / Fold change /veh SAMD14 (11745864_x_at) / RFU NPB (11741838_a_at) / Fold change /veh NPB (11741838_a_at) / RFU TMPRSS6 (11731388_a_at) / Fold change /veh TMPRSS6 (11731388_a_at) / RFU KRTAP10-2 (11738614_at) / Fold change /veh KRTAP10-2 (11738614_at) / RFU ARHGAP8 /// PRR5-ARHGAP8 (11727945_x_at) / Fold change /veh ARHGAP8 /// PRR5-ARHGAP8 (11727945_x_at) / RFU KRTAP5-7 /// NADSYN1 (11734609_at) / Fold change /veh KRTAP5-7 /// NADSYN1 (11734609_at) / RFU RASL12 (11751679_a_at) / Fold change /veh RASL12 (11751679_a_at) / RFU CDKN2B (11736163_a_at) / Fold change /veh CDKN2B (11736163_a_at) / RFU PRF1 (11729649_at) / Fold change /veh PRF1 (11729649_at) / RFU, ZNF638 /// ZNF638-IT1 / Fold change vs veh, ZNF638 /// ZNF638-IT1 / RFU, PANK3 / Fold change vs veh, PANK3 / RFU, SH3YL1 / Fold change vs veh, SH3YL1 / RFU, ZEB2 / Fold change vs veh, ZEB2 / RFU, NRIP1 / Fold change vs veh, NRIP1 / RFU, PTTG1IP / Fold change vs veh, PTTG1IP / RFU, CAPN2 / Fold change vs veh, CAPN2 / RFU, MED14 / Fold change vs veh, MED14 / RFU, SNORA58 / Fold change vs veh, SNORA58 / RFU, C1orf63 / Fold change vs veh, C1orf63 / RFU, LRRFIP1 / Fold change vs veh, LRRFIP1 / RFU, NDUFAF7 / Fold change vs veh, NDUFAF7 / RFU, SLC12A2 / Fold change vs veh, SLC12A2 / RFU, IBTK / Fold change vs veh, IBTK / RFU, ESF1 / Fold change vs veh, ESF1 / Fold change vs veh, TMEM50B / RFU, TAOK1 / Fold change vs veh, TAOK1 / RFU, ACBD3 / Fold change vs veh, ACBD3 / RFU, TMA16 / Fold change vs veh, TMA16 / RFU, RWDD3 / Fold change vs veh, RWDD3 / RFU, BCAT1 / Fold change vs veh, BCAT1 / RFU, EDEM3 / Fold change vs veh, EDEM3 / RFU, TMEM33 / Fold change vs veh, TMEM33 / RFU, WDR75 / Fold change vs veh, WDR75 / RFU, AHCTF1 / Fold change vs veh, AHCTF1 / RFU, TFRC / Fold change vs veh, TFRC / RFU, ZDHHC17 / Fold change vs veh, ZDHHC17 / RFU, NOM1 / Fold change vs veh, NOM1 / RFU, ARL8B / Fold change vs veh, ARL8B / RFU, ZBTB11 / Fold change vs veh, ZBTB11 / RFU, TAMM41 / Fold change vs veh, TAMM41 / RFU, KIAA1704 /// LOC100996395 / Fold change vs veh, KIAA1704 /// LOC100996395 / RFU, ING1 / Fold change vs veh, ING1 / RFU, TRMT61B / Fold change vs veh, TRMT61B / RFU, FUBP3 / Fold change vs veh, FUBP3 / RFU, TP53 / Fold change vs veh, TP53 / RFU, TNKS2 / Fold change vs veh, TNKS2 / RFU, ZFP14 / Fold change vs veh, ZFP14 / RFU, ACTR2 / Fold change vs veh, ACTR2 / RFU, PPP3R1 / Fold change vs veh, PPP3R1 / RFU, PIK3R1 / Fold change vs veh, PIK3R1 / RFU, HNRNPA1 / Fold change vs veh, HNRNPA1 / RFU, RNF170 / Fold change vs veh, RNF170 / RFU, ZNF28 / Fold change vs veh, ZNF28 / RFU, RNGTT / Fold change vs veh, RNGTT / RFU, OGT / Fold change vs veh, OGT / RFU, BRD1 / Fold change vs veh, BRD1 / RFU, MARS / Fold change vs veh, MARS / RFU, ZNF655 / Fold change vs veh, ZNF655 / RFU, FAHD1 / Fold change vs veh, FAHD1 / RFU, BDP1 / Fold change vs veh, BDP1 / RFU, LRRCC1 / Fold change vs veh, LRRCC1 / RFU, ARID1A / Fold change vs veh, ARID1A / RFU, ZNF146 / Fold change vs veh, ZNF146 / RFU, ZNF330 / Fold change vs veh, ZNF330 / RFU, GPN3 / Fold change vs veh, GPN3 / RFU, C9orf123 / Fold change vs veh, C9orf123 / RFU, N4BP2L2 / Fold change vs veh, N4BP2L2 / RFU, ARFIP1 / Fold change vs veh, ARFIP1 / RFU, FAM179B / Fold change vs veh, FAM179B / RFU, BCL10 / Fold change vs veh, BCL10 / RFU, UHRF1BP1L / Fold change vs veh, UHRF1BP1L / RFU, BET1 / Fold change vs veh, BET1 / RFU, CNOT2 / Fold change vs veh, CNOT2 / RFU, ZNF268 / Fold change vs veh, ZNF268 / Fold change vs veh, ZNF507 / RFU, DGCR2 / Fold change vs veh, DGCR2 / RFU, WDSUB1 / Fold change vs veh, WDSUB1 / Fold change vs veh, HSP90B1 /// MIR3652 / RFU, ADSS / Fold change vs veh, ADSS / RFU, GK / Fold change vs veh, GK / RFU, ZNF148 / Fold change vs veh, ZNF148 / RFU, TAF9 / Fold change vs veh, TAF9 / RFU, SLC1A5 / Fold change vs veh, SLC1A5 / RFU, SLMO2 / Fold change vs veh, SLMO2 / RFU, ABCC4 / Fold change vs veh, ABCC4 / RFU, LOC101060439 /// RAP1B / Fold change vs veh, LOC101060439 /// RAP1B / RFU, RFX7 / Fold change vs veh, RFX7 / RFU, GTPBP10 / Fold change vs veh, GTPBP10 / RFU, CNEP1R1 / Fold change vs veh, CNEP1R1 / RFU, BIVM-ERCC5 /// ERCC5 / Fold change vs veh, BIVM-ERCC5 /// ERCC5 / RFU, ILF3 / Fold change vs veh, ILF3 / RFU 11762660_at / Fold change /veh 11762660_at / RFU VCAN (11757783_s_at) / Fold change /veh VCAN (11757783_s_at) / RFU DDX43 (11728927_at) / Fold change /veh DDX43 (11728927_at) / RFU KRT8 (11758188_x_at) / Fold change /veh KRT8 (11758188_x_at) / RFU NKD1 (11759106_at) / Fold change /veh NKD1 (11759106_at) / RFU SRD5A1 (11742802_a_at) / Fold change /veh SRD5A1 (11742802_a_at) / RFU TPSAB1 /// TPSB2 (11721975_s_at) / Fold change /veh TPSAB1 /// TPSB2 (11721975_s_at) / RFU GSTM3 (11746129_a_at) / Fold change /veh GSTM3 (11746129_a_at) / RFU IL23R (11737362_x_at) / Fold change /veh IL23R (11737362_x_at) / RFU TMEM51 (11727254_a_at) / Fold change /veh TMEM51 (11727254_a_at) / RFU PIWIL2 (11732686_x_at) / Fold change /veh PIWIL2 (11732686_x_at) / RFU ORM1 (11744905_x_at) / Fold change /veh ORM1 (11744905_x_at) / RFU CCDC152 (11743942_at) / Fold change /veh CCDC152 (11743942_at) / RFU ECM1 (11717891_a_at) / Fold change /veh ECM1 (11717891_a_at) / RFU IL23R (11748794_a_at) / Fold change /veh IL23R (11748794_a_at) / RFU TNFAIP8L3 (11732012_x_at) / Fold change /veh TNFAIP8L3 (11732012_x_at) / RFU MBOAT4 (11741988_at) / Fold change /veh MBOAT4 (11741988_at) / RFU 11764193_at / Fold change /veh 11764193_at / RFU TMEM53 (11763286_at) / Fold change /veh TMEM53 (11763286_at) / RFU MAGEB2 (11727129_at) / Fold change /veh MAGEB2 (11727129_at) / RFU TMEM200A (11744735_a_at) / Fold change /veh TMEM200A (11744735_a_at) / RFU CCDC152 (11751479_a_at) / Fold change /veh CCDC152 (11751479_a_at) / RFU FAM211A (11726209_a_at) / Fold change /veh FAM211A (11726209_a_at) / RFU RGS16 (11746705_a_at) / Fold change /veh RGS16 (11746705_a_at) / RFU VCAN (11755009_s_at) / Fold change /veh VCAN (11755009_s_at) / RFU RHOB (11743442_s_at) / Fold change /veh RHOB (11743442_s_at) / RFU RGS16 (11720943_a_at) / Fold change /veh RGS16 (11720943_a_at) / RFU RGS16 (11720944_at) / Fold change /veh RGS16 (11720944_at) / RFU, VPS4B / Fold change vs veh, VPS4B / RFU, CREB1 / Fold change vs veh, CREB1 / RFU, DNAJC13 / Fold change vs veh, DNAJC13 / RFU, GNAQ / Fold change vs veh, GNAQ / RFU, CDK5R1 / Fold change vs veh, CDK5R1 / RFU, ZRANB3 / Fold change vs veh, ZRANB3 / RFU, CUL4A / Fold change vs veh, CUL4A / RFU, CCNY / Fold change vs veh, CCNY / RFU, UFL1 / Fold change vs veh, UFL1 / RFU, COG3 / Fold change vs veh, COG3 / RFU, DIAPH2 / Fold change vs veh, DIAPH2 / RFU, SKA2 / Fold change vs veh, SKA2 / RFU, AFF3 / Fold change vs veh, AFF3 / RFU, LMF1 / Fold change vs veh, LMF1 / RFU, IPO11 / Fold change vs veh, IPO11 / RFU, DFFB / Fold change vs veh, DFFB / RFU, FOXP1 / Fold change vs veh, FOXP1 / RFU, CARD8 / Fold change vs veh, CARD8 / RFU, STRN3 / Fold change vs veh, STRN3 / RFU, ADK / Fold change vs veh, ADK / RFU, RASSF2 / Fold change vs veh, RASSF2 / RFU, WIPF1 / Fold change vs veh, WIPF1 / RFU, LARP1B / Fold change vs veh, LARP1B / RFU, RASA1 / Fold change vs veh, RASA1 / RFU, RB1 / Fold change vs veh, RB1 / RFU, PPFIA1 / Fold change vs veh, PPFIA1 / RFU, MAT2A / Fold change vs veh, MAT2A / RFU, CCT5 / Fold change vs veh, CCT5 / RFU, WDR92 / Fold change vs veh, WDR92 / RFU, CUX1 / Fold change vs veh, CUX1 / RFU, TTC7A / Fold change vs veh, TTC7A / RFU, TMEM135 / Fold change vs veh, TMEM135 / RFU, DEPTOR / Fold change vs veh, DEPTOR / RFU, CPM / Fold change vs veh, CPM / RFU, DNAJB6 / Fold change vs veh, DNAJB6 / RFU, CACNA2D3 / Fold change vs veh, CACNA2D3 / RFU, DTX4 / Fold change vs veh, DTX4 / RFU, TFCP2 / Fold change vs veh, TFCP2 / RFU, GMCL1 /// GMCL1P1 / Fold change vs veh, GMCL1 /// GMCL1P1 / RFU, AEBP2 / Fold change vs veh, AEBP2 / RFU, SNHG1 /// SNORD22 /// SNORD25 /// SNORD26 /// SNORD27 /// SNORD28 /// SNORD29 /// SNORD31 / Fold change vs veh, SNHG1 /// SNORD22 /// SNORD25 /// SNORD26 /// SNORD27 /// SNORD28 /// SNORD29 /// SNORD31 / Fold change (Aza/veh), C12orf56 (ProbeSet 11735607_a_at) / Fold change (ACY-1035/veh), C12orf56 (ProbeSet 11735607_a_at) / Fold change (Aza/veh), FGFR1OP (ProbeSet 11751329_s_at) / Fold change (ACY-1035/veh), FGFR1OP (ProbeSet 11751329_s_at) / Fold change (Aza/veh), VPS36 (ProbeSet 11739960_a_at) / Fold change (ACY-1035/veh), VPS36 (ProbeSet 11739960_a_at) / RFU SYPL1 (11715823_x_at) / Fold change /veh SYPL1 (11715823_x_at) / RFU IGFBP7 (11715501_s_at) / Fold change /veh IGFBP7 (11715501_s_at) / RFU REEP3 (11722064_at) / Fold change /veh REEP3 (11722064_at) / RFU IGLL1 (11728026_x_at) / Fold change /veh IGLL1 (11728026_x_at): dose or concentration left out as unconfirmed
Conditions: ProbeSet 11716891_at; LIST B

**Q.** How did the “RFU, C9orf123” value turn out when Nc1ccc(-c2cccs2)cc1NC(=O)c1ccc2c(c1)cc(C1CC1)n2CCN1CCOCC1 [ACY-1035] was run?
**A.** 39.54 RFU
